Data published in patent US10717731B2, “Nitrogen-containing aromatic heterocyclic compound” (MITSUBISHI TANABE PHARMA CORPORATION, priority 2015, dated 2020).

What follows are compounds tested against T1, human CYP11B2 (Homo sapiens, UniProt P19099) (assay: Inhibitory effect on hCYP11B2: aldosterone production in mitochondrial fraction of V79 cells stably expressing human CYP11B2, HTRF). Details: 0.5 μmol/L deoxycorticosterone, 150 μmol/L NADPH, 1.5-2 hours at room temperature.
T1 construct: expressed in transfected cells; mitochondrial fraction
T1 sequence (P19099 25-503): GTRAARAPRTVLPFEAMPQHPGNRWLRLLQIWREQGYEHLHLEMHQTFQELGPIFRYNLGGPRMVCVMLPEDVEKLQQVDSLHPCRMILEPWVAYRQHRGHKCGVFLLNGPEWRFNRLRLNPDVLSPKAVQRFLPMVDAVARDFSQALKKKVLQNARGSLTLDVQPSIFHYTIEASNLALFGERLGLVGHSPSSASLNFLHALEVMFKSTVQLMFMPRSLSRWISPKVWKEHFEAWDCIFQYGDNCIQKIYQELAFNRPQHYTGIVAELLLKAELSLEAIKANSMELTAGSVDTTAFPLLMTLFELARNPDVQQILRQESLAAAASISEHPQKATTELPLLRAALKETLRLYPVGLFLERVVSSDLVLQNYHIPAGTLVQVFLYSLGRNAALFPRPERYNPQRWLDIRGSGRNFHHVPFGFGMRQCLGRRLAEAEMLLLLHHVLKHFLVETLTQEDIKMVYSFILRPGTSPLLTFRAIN
Format: biochemical
Protocol: Experimental Example 1 (Inhibitory Effect on hCYP11B2)
The pcDNA3.1-human CYP11B2 plasmid was transfected into a Chinese hamster lung fibroblast V79 cell line to produce a cell line stably expressing human CYP11B2 gene.
The cells were cultured and grown in the Dulbecco's modified Eagle's/Ham's medium supplemented with 10% fetal bovine serum and 1% G418 disulfate solution under the environment of 37° C., 95% air, and 5% CO2, and the grown cells were harvested.
Then, the cells were fractionated to obtain mitochondria by reference to a method described in Chabre et al. JCE & M 85 (11) 4060-68, 2000. In particular, the cells suspended in a 5 mmol/L Tris-HCl buffer (pH 7.4) containing 250 mmol/L sucrose were homogenized in a Teflon (Registered Trademark) Potter Elvehjem homogenizer, and then the suspension was centrifuged (800×g, 15 min.). The supernatant was separated and again centrifuged (10000×g, 15 min.) to obtain a pellet (mitochondrial fraction).
The mitochondrial fraction diluted with a buffer containing 10 mmol/L KH2PO4, 10 mmol/L Tris, 20 mmol/L KCl, 25 mmol/L sucrose, 5 mmol/L MgCl2, and 0.05% bovine serum albumin was dispensed to a 96-well plate. 0.5 μmol/L Deoxycorticosterone, 150 μmol/L NADPH and a compound of each concentration were added to each well, and incubated for 1.5-2 hours at room temperature to produce aldosterone. An amount of the produced aldosterone in the incubated solution was determined by using HTRF (Homogeneous Time Resolved Fluorescence) method.
IC50 (nmol/L) was calculated by analyzing the aldosterone production inhibition rate (%) of each concentration of compounds by non-linear regression to a logistic curve.

Structure (SMILES) | IC50
CC(C)NC(=O)CN1CCN(c2cncc(-c3ccc4cn[nH]c4c3)c2)CC1 [Example 14] | 30 nM
CO[C@H]1CC[C@@H](NC(=O)CN2CCN(c3cncc(-c4ccc(C)cc4)n3)CC2)CC1 [Example 20] | 4.5 nM
Cn1ncc2cc(-c3cncc(N4CCN(CC(=O)N[C@H]5CC[C@@H](C(C)(C)O)CC5)CC4)n3)ccc21 [Example 30] | 13 nM
CC(=O)N[C@H]1CC[C@@H](NC(=O)CN2CCN(c3cncc(-c4ccc(F)cc4)n3)CC2)CC1 [Example 37] | 8.4 nM
CC(C)NC(=O)CN1CCN(c2cncc(-c3ccc4cnn(C)c4c3)c2)CC1 [Example 15] | 18 nM
O=C(CN1CCN(c2cncc(-c3ccc(F)cc3)n2)CC1)NC1CCN(C2CCOCC2)CC1 [Example 34] | 7 nM
Cc1ccccc1-c1cncc(N2CCN(CC(=O)N[C@H](CO)C(C)C)CC2)c1 [Example 8] | 4.9 nM
Cc1ccccc1-c1cncc(N2CCN(CC(=O)N[C@H]3CN4CCC3CC4)CC2)n1 [Example 48] | 14 nM
C[C@@H]1CN(c2cncc(-c3ccc(C(F)(F)F)cc3)n2)CCN1CC(=O)NCC(C)(C)O [Example 45] | 20 nM
CC(C)[C@@H](CO)NC(=O)CN1CCN(c2cncc(-c3ccc(Cl)cc3)n2)CC1 [Example 39] | 4.3 nM
CC(C)NC(=O)CN1CCN(c2cncc(-c3ccc(C#N)nc3)c2)CC1 [Example 11] | 18 nM
O=C(CN1CCN(c2cncc(-c3ccc(F)cc3)n2)CC1)NC1CCN(c2ncccn2)CC1 [Example 36] | 4.8 nM
CN(C)[C@H]1CC[C@H](NC(=O)CN2CCN(c3cncc(-c4ccc(F)cc4)n3)CC2)CC1 [Example 31] | 5.1 nM
CO[C@H]1CC[C@@H](NC(=O)CN2CCN(c3cncc(-c4ccc5c(cnn5C)c4)n3)CC2)CC1 [Example 28] | 10 nM
C[C@H](O)CNC(=O)CN1CCN(c2cncc(-c3ccc4cnn(C)c4c3)n2)CC1 [Example 18] | 14 nM
Cn1ncc2cc(-c3cncc(N4CCN(CC(=O)N[C@H]5CC[C@@H](N(C)C)CC5)CC4)n3)ccc21 [Example 29] | 37 nM

Structure (SMILES) | IC50
Cc1ccc(-c2cncc(N3CCN(CC(=O)NCC4(O)CCN(C)CC4)CC3)n2)cc1 [Example 21] | 28 nM
CC1CCC(c2cncc(N3CCN(CC(=O)NC(C)C)CC3)c2)CC1 (stereo not drawn) [Example 17] | 17 nM
CC1CC=C(c2cncc(N3CCN(CC(=O)NC(C)C)CC3)c2)CC1 (stereo not drawn) [Example 16] | 6.9 nM
Cc1ccccc1-c1cncc(N2CCN(CC(=O)NC3CCN(CCS(C)(=O)=O)CC3)CC2)n1 [Example 47] | 22 nM
CC(C)[C@@H](CO)NC(=O)CN1CCN(c2cncc(-c3ccc(C(F)(F)F)cc3)n2)C[C@H]1C [Example 42] | 40 nM
C[C@@H]1CN(c2cncc(-c3ccc(C(F)(F)F)cc3)n2)CCN1CC(=O)N[C@H]1CCC[C@H]1O [Example 46] | 26 nM
CC(C)NC(=O)CN1CCN(c2cncc(-c3ccc4c(cnn4C)c3)n2)CC1 [Example 50] | 48 nM
Cc1ccc(-c2cncc(N3CCN(CC(=O)NC4CC5COCC(C4)C5O)CC3)c2)cc1 (stereo not drawn) [Example 10] | 9.2 nM
CN(C)[C@H]1CC[C@@H](NC(=O)CN2CCN(c3cncc(-c4ccc(Cl)cc4)n3)CC2)CC1 [Example 38] | 8.7 nM
CN(C)[C@H]1CC[C@@H](NC(=O)CN2CCN(c3cncc(-c4ccc(F)cc4)c3)CC2)CC1 [Example 6] | 13 nM
O=C(CN1CCN(c2cncc(-c3ccc(Cl)cc3)n2)CC1)NC1CCS(=O)(=O)CC1 [Example 41] | 9.6 nM
C[C@@H]1CN(c2cncc(-c3ccc(C(F)(F)F)cc3)n2)CCN1CC(=O)N[C@@H](C)C(C)(C)O [Example 44] | 56 nM
CC(C)NC(=O)CN1CCN(c2cncc(-c3ccc4c(c3)CCO4)c2)CC1 [Example 13] | 11 nM
CC(C)(C)OC(=O)N1C2COCC1CC(NC(=O)CN1CCN(c3cncc(-c4ccc(F)cc4)c3)CC1)C2 (stereo not drawn) [Example 5] | 14 nM
CO[C@H]1CC[C@@H](NC(=O)CN2CCN(c3cncc(-c4ccc5cnn(C)c5c4)n3)CC2)CC1 [Example 26] | 14 nM
O=C(CN1CCN(c2cncc(-c3ccc(F)cc3)n2)CC1)N[C@H]1CC[C@@H](N2CCOCC2)CC1 [Example 32] | 9.6 nM

Next, values leading:

IC50 | Structure (SMILES)
12 nM | CC(=O)N[C@H]1CC[C@@H](NC(=O)CN2CCN(c3cc(-c4ccc(Cl)cc4)cnn3)CC2)CC1 [Example 69]
22 nM | Cc1ccccc1-c1cnnc(N2CCN(CC(=O)N[C@H]3CC[C@@H](N(C)C)CC3)CC2)c1 [Example 77]
16 nM | CS(=O)(=O)CCN1CCC(NC(=O)CN2CCN(c3cc(-c4ccc(F)cc4)cnn3)CC2)CC1 [Example 71]
6 nM | O=C(CN1CCN(c2cc(-c3ccc(Cl)cc3)cnn2)CC1)NC1CCS(=O)(=O)CC1 [Example 70]
9.1 nM | COC1CCN(NC(=O)CN2CCN(c3cc(-c4ccc(Cl)cc4)cnn3)CC2)CC1 [Example 65]
11 nM | O=C(CN1CCN(c2cc(-c3ccc(F)cc3)cnn2)CC1)NC1CCC(N2CCOCC2)CC1 (stereo not drawn) [Example 72]
12 nM | CN1CCC(NC(=O)CN2CCN(c3cc(-c4ccc(Cl)cc4)cnn3)CC2)CC1=O (single isomer, unassigned) [Example 91b]
8.4 nM | CC(C)NC(=O)CN1CCN(c2cc(-c3ccc4ccccc4c3)cnn2)CC1 [Example 86]
20 nM | Cc1ccc(-c2cnnc(N3CCN(CC(=O)N[C@@H]4CCOC[C@@H]4O)CC3)c2)cc1 [Example 58]
76 nM | O=C(CN1CCN(c2cc(-c3ccc(Cl)cc3)cnn2)CC1)NC1CCNCC1O (single isomer, unassigned) [Example 90b]
7.8 nM | CC(C)(C)OC(=O)N1CC[C@@H](NC(=O)CN2CCN(c3cc(-c4ccc(F)cc4)cnn3)CC2)[C@H](F)C1 [Example 88]
25 nM | CC(C)NC(=O)CN1CCN(c2cncc(-c3ccc(C#N)nc3)n2)CC1 [Example 53]
8.3 nM | CNC(=O)COC1CCC(NC(=O)CN2CCN(c3cc(-c4ccc(Cl)cc4)cnn3)CC2)CC1 (stereo not drawn) [Example 68]
8.8 nM | C[C@H](O)CNC(=O)CN1CCN(c2cc(-c3ccc(F)cc3)cnn2)CC1 [Example 63]
103 nM | COCc1ccc(-c2cnnc(N3CCN(CC(=O)N[C@H]4CC[C@@H](N(C)C)CC4)CC3)c2)cc1 [Example 76]
30 nM | CN1CCC(NC(=O)CN2CCN(c3cc(-c4ccc(Cl)cc4)cnn3)CC2)CC1=O (single isomer, unassigned) [Example 91a]

IC50 | Structure (SMILES)
28 nM | O=C(CN1CCN(c2cc(-c3ccc(F)cc3)cnn2)CC1)NC1CCN(CCO)CC1 [Example 78]
2.5 nM | Cc1ccccc1-c1cnnc(N2CCN(CC(=O)Nc3cccnc3)CC2)c1 [Example 61]
9.6 nM | CNC(=O)COC1CCC(NC(=O)CN2CCN(c3cc(-c4ccc(F)cc4)cnn3)CC2)CC1 (stereo not drawn) [Example 66]
41 nM | COc1ccccc1-c1cnnc(N2CCN(CC(=O)N[C@H]3CC[C@@H](N(C)C)CC3)CC2)c1 [Example 75]
9.1 nM | CC1CC=C(c2cnnc(N3CCN(CC(=O)NC(C)C)CC3)c2)CC1 (stereo not drawn) [Example 81]
17 nM | CN(C)[C@H]1CC[C@H](NC(=O)CN2CCN(c3cc(-c4ccc(Cl)cc4)cnn3)CC2)CC1 [Example 80]
7 nM | CC(C)NC(=O)CN1CCN(c2cc(-c3ccc(F)cc3)cnn2)CC1 [Example 85]
2.2 nM | CC(C)NC(=O)CN1CCN(c2cncc(-c3ccc4c(c3)CCO4)n2)CC1 [Example 55]
18 nM | CNC(=O)CN1CCC(NC(=O)CN2CCN(c3cc(-c4ccc(F)cc4)cnn3)CC2)CC1 [Example 73]
18 nM | CC(C)NC(=O)CN1CCN(c2cc(-c3ccc(C(F)(F)F)cc3)cnn2)CC1 [Example 87]
6.6 nM | CC(C)(C)OC(=O)N1CCN(CCNC(=O)CN2CCN(c3cc(-c4ccc(F)cc4)cnn3)CC2)CC1 [Example 64]
83 nM | Cc1c(-c2ccc(F)cc2)cnnc1N1CCN(CC(=O)NC(C)C)CC1 [Example 92]
16 nM | Cn1ncc2ccc(-c3cncc(N4CCN(CC(=O)NN5CCCC5)CC4)n3)cc21 [Example 54]
11 nM | CS(=O)(=O)N1CCC(CNC(=O)CN2CCN(c3cc(-c4ccc(F)cc4)cnn3)CC2)CC1 [Example 62]
7.4 nM | O=C(CN1CCN(c2cc(-c3ccc(F)cc3)cnn2)CC1)N[C@@H]1CCNC[C@H]1F (single isomer, unassigned) [Example 89a]
